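The compound was tested at five concentrations on cells cultured in 96-well plates, with a 48-hour exposure period. TGI: total growth inhibition.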
Columns and labels:
Experiment in all cases: NCI anticancer screen, dose series, 48 h
UACC-62 melanoma = tested on: UACC-62 melanoma
HCT-15 colon = tested on: HCT-15 colon
MDA-N = tested on: MDA-N
MCF7 breast = tested on: MCF7 breast
MDA-MB-231 breast = tested on: MDA-MB-231 breast
HL-60(TB) leukemia = tested on: HL-60(TB) leukemia
HOP-92 NSCLC = tested on: HOP-92 NSCLC
HCC-2998 colon = tested on: HCC-2998 colon
SF-295 CNS = tested on: SF-295 CNS
COLO 205 colon = tested on: COLO 205 colon
DU-145 prostate = tested on: DU-145 prostate
SN12C renal = tested on: SN12C renal
PC-3 prostate = tested on: PC-3 prostate

With C#CC(O)/C=C/CCCCCCC#CC/C=C\CC#CCCCCCCCCC(O)C#C (centres undefined) the TGI (UACC-62 melanoma) was 23 µM, the TGI (HCT-15 colon) was 10.4 µM and the TGI (MDA-N) was 5.48 µM. For the same compound, the TGI (MCF7 breast) was 39.5 µM, the TGI (MDA-MB-231 breast) was 11.8 µM and the TGI (HL-60(TB) leukemia) was 3.71 µM. For the same compound, the TGI (HOP-92 NSCLC) was 5.05 µM, the TGI (HCC-2998 colon) was 9.8 µM and the TGI (SF-295 CNS) was 30.3 µM. For the same compound, the TGI (COLO 205 colon) was 7.41 µM, the TGI (DU-145 prostate) was 24.1 µM and the TGI (SN12C renal) was 4.79 µM. The TGI (PC-3 prostate) was 31.6 µM.
In the case of COc1ccc(NCC(=O)Nn2c(-c3ccccc3)nc3ccccc3c2=O)cc1, the TGI (UACC-62 melanoma) was 32.3 µM, the TGI (HCT-15 colon) was greater than 100 µM and the TGI (MDA-N) was greater than 100 µM. For the same compound, the TGI (MCF7 breast) was 41.2 µM, the TGI (MDA-MB-231 breast) was 84.4 µM and the TGI (HL-60(TB) leukemia) was greater than 100 µM. It also gave a TGI (HOP-92 NSCLC) greater than 100 µM, a TGI (HCC-2998 colon) greater than 100 µM and a TGI (SF-295 CNS) greater than 100 µM. For the same compound, the TGI (COLO 205 colon) was greater than 100 µM, the TGI (DU-145 prostate) was greater than 100 µM and the TGI (SN12C renal) was greater than 100 µM. The TGI (PC-3 prostate) was greater than 100 µM.
For CC1(C)COC2=C(C1)C(=O)c1ccccc1C2=O, the TGI (UACC-62 melanoma) was 2.53 µM, the TGI (HCT-15 colon) was 2.41 µM and the TGI (MDA-N) was 0.325 µM. The TGI (MCF7 breast) was 2.99 µM, the TGI (MDA-MB-231 breast) was 4 µM and the TGI (HL-60(TB) leukemia) was 2.71 µM. The TGI (HOP-92 NSCLC) was 3.85 µM, the TGI (HCC-2998 colon) was 3.08 µM and the TGI (SF-295 CNS) was 3 µM. The TGI (COLO 205 colon) was 4.04 µM, the TGI (DU-145 prostate) was 3.07 µM and the TGI (SN12C renal) was 2.76 µM. It also gave a TGI (PC-3 prostate) of 3.58 µM.
Cc1nc2sc(C(=O)c3ccc(Cl)cc3)c(N)c2c(-c2ccccc2Cl)c1C(=O)Nc1ccccc1 gave a TGI (UACC-62 melanoma) of 29.6 µM, a TGI (HCT-15 colon) of 43.5 µM and a TGI (MDA-N) of 29.5 µM. The TGI (MCF7 breast) was 53.8 µM, the TGI (MDA-MB-231 breast) was 34.6 µM and the TGI (HL-60(TB) leukemia) was greater than 86.5 µM. The TGI (HOP-92 NSCLC) was 15.9 µM, the TGI (HCC-2998 colon) was 59.9 µM and the TGI (SF-295 CNS) was 47.9 µM. It also gave a TGI (COLO 205 colon) of 37.4 µM, a TGI (DU-145 prostate) of 61 µM and a TGI (SN12C renal) of 42.1 µM. It also gave a TGI (PC-3 prostate) of 47 µM.
COC1(CC[C@@H](C)COC2OC(CO)C(O)C(O)C2O)O[C@H]2C[C@H]3[C@@H]4CC=C5C[C@@H](OC6OC(CO)C(O)C(OC7OC(CO)C(O)C(O)C7O)C6OC6OC(C)C(O)C(O)C6O)CC[C@]5(C)[C@H]4CC[C@]3(C)[C@H]2[C@@H]1C (some centres undefined) was tested, and the TGI (UACC-62 melanoma) was greater than 35.7 µM, the TGI (HCT-15 colon) was 11.8 µM and the TGI (MDA-N) was 23.1 µM. For the same compound, the TGI (MCF7 breast) was 37.6 µM, the TGI (MDA-MB-231 breast) was 16.5 µM and the TGI (HL-60(TB) leukemia) was 26.8 µM. For the same compound, the TGI (HOP-92 NSCLC) was 12.3 µM, the TGI (HCC-2998 colon) was 10.6 µM and the TGI (SF-295 CNS) was 11.3 µM. The TGI (COLO 205 colon) was greater than 37.5 µM, the TGI (DU-145 prostate) was 14.7 µM and the TGI (SN12C renal) was greater than 56 µM. It also gave a TGI (PC-3 prostate) of 21.4 µM.
Work on CN(CCNC(=O)c1c[nH]c2c1Cc1ccccc1-2)CCNC(=O)c1c[nH]c2c1Cc1ccccc1-2 yielded a TGI (UACC-62 melanoma) of 40.9 µM, a TGI (HCT-15 colon) greater than 100 µM and a TGI (MDA-N) of 33.9 µM. It also gave a TGI (MCF7 breast) of 86 µM, a TGI (MDA-MB-231 breast) of 80.6 µM and a TGI (HL-60(TB) leukemia) of 77.2 µM. It also gave a TGI (HOP-92 NSCLC) greater than 100 µM, a TGI (HCC-2998 colon) greater than 100 µM and a TGI (SF-295 CNS) greater than 100 µM. For the same compound, the TGI (COLO 205 colon) was greater than 100 µM, the TGI (DU-145 prostate) was greater than 100 µM and the TGI (SN12C renal) was greater than 100 µM. The TGI (PC-3 prostate) was 41.9 µM.
Compound COc1cc(OC)c2c(c1)OC(c1cccnc1)C(c1ccccc1)C2=O (centres undefined) has a TGI (UACC-62 melanoma) greater than 100 µM, a TGI (HCT-15 colon) greater than 100 µM and a TGI (MDA-N) greater than 100 µM. The TGI (MCF7 breast) was greater than 100 µM, the TGI (MDA-MB-231 breast) was greater than 100 µM and the TGI (HL-60(TB) leukemia) was greater than 100 µM. It also gave a TGI (HOP-92 NSCLC) greater than 100 µM, a TGI (HCC-2998 colon) greater than 100 µM and a TGI (SF-295 CNS) greater than 100 µM. It also gave a TGI (COLO 205 colon) greater than 100 µM, a TGI (DU-145 prostate) greater than 100 µM and a TGI (SN12C renal) greater than 100 µM. The TGI (PC-3 prostate) was greater than 100 µM.
Compound Cc1ccc2c(c1)nc1n2C(N)=Nc2ccccc2S1 has a TGI (UACC-62 melanoma) greater than 100 µM, a TGI (HCT-15 colon) greater than 100 µM and a TGI (MDA-N) greater than 100 µM. For the same compound, the TGI (MCF7 breast) was greater than 100 µM, the TGI (MDA-MB-231 breast) was greater than 100 µM and the TGI (HL-60(TB) leukemia) was 6.86 µM. The TGI (HOP-92 NSCLC) was greater than 100 µM, the TGI (HCC-2998 colon) was greater than 100 µM and the TGI (SF-295 CNS) was greater than 100 µM. It also gave a TGI (COLO 205 colon) greater than 100 µM, a TGI (DU-145 prostate) greater than 100 µM and a TGI (SN12C renal) greater than 100 µM. It also gave a TGI (PC-3 prostate) greater than 100 µM.
C=C1C(=O)O[C@H]2C[C@@H]1[C@@H](O)[C@H](O)[C@@H](C)CCCC(C)=CCC[C@@]2(C)O gave a TGI (UACC-62 melanoma) of 49.2 µM, a TGI (HCT-15 colon) greater than 100 µM and a TGI (MDA-N) of 54.6 µM. It also gave a TGI (MCF7 breast) of 26.5 µM, a TGI (MDA-MB-231 breast) of 84.4 µM and a TGI (HL-60(TB) leukemia) greater than 100 µM. It also gave a TGI (HOP-92 NSCLC) of 99.5 µM, a TGI (HCC-2998 colon) of 60.5 µM and a TGI (SF-295 CNS) greater than 100 µM. The TGI (COLO 205 colon) was 28.2 µM, the TGI (DU-145 prostate) was greater than 100 µM and the TGI (SN12C renal) was 72.3 µM. The TGI (PC-3 prostate) was 43.9 µM.
In the case of c1ccc2c(c1)cc1n2CCc2c-1[nH]c1ccccc21, the TGI (UACC-62 melanoma) was greater than 10 µM, the TGI (HCT-15 colon) was greater than 10 µM and the TGI (MDA-N) was greater than 10 µM. The TGI (MCF7 breast) was greater than 10 µM, the TGI (MDA-MB-231 breast) was greater than 10 µM and the TGI (HL-60(TB) leukemia) was greater than 10 µM. It also gave a TGI (HOP-92 NSCLC) greater than 10 µM, a TGI (HCC-2998 colon) greater than 10 µM and a TGI (SF-295 CNS) greater than 10 µM. It also gave a TGI (COLO 205 colon) greater than 10 µM, a TGI (DU-145 prostate) greater than 10 µM and a TGI (SN12C renal) greater than 10 µM. It also gave a TGI (PC-3 prostate) greater than 10 µM.
Compound O=C(O)c1nc2ccc(C(F)(F)F)cc2nc1Nc1ccc(F)cc1 has a TGI (UACC-62 melanoma) of 27.9 µM, a TGI (HCT-15 colon) of 70.2 µM and a TGI (MDA-N) of 79.6 µM. It also gave a TGI (MCF7 breast) of 61.5 µM, a TGI (MDA-MB-231 breast) of 65.6 µM and a TGI (HL-60(TB) leukemia) of 33.3 µM. The TGI (HCC-2998 colon) was 34.3 µM, the TGI (SF-295 CNS) was 37.7 µM and the TGI (COLO 205 colon) was 44.1 µM. It also gave a TGI (DU-145 prostate) of 85 µM, a TGI (SN12C renal) of 85.6 µM and a TGI (PC-3 prostate) of 48 µM.
CC(C)=CC(=O)c1[nH]c2ccccc2c1CC(=O)NCCc1cncn1C showed a TGI (UACC-62 melanoma) greater than 100 µM, a TGI (HCT-15 colon) greater than 100 µM and a TGI (MDA-N) greater than 100 µM. The TGI (MCF7 breast) was greater than 100 µM, the TGI (MDA-MB-231 breast) was greater than 100 µM and the TGI (HOP-92 NSCLC) was greater than 100 µM. For the same compound, the TGI (HCC-2998 colon) was 81.5 µM, the TGI (SF-295 CNS) was greater than 100 µM and the TGI (COLO 205 colon) was 79.6 µM. The TGI (DU-145 prostate) was greater than 100 µM, the TGI (SN12C renal) was greater than 100 µM and the TGI (PC-3 prostate) was greater than 100 µM.

Reference: PubChem BioAssay (NCI)
